Data: patent US12064426B2, “Selective inhibitors of ROCK1 and ROCK2 protein kinases and uses thereof” (GENOSCO Inc., priority 2021, dated 2024)

What was measured:
[1] = molecular target: T1, Recombinant ROCK1 (amino acids 1-477) (Homo sapiens, UniProt Q13464); experiment: ROCK inhibition assay, LANCE Ultra TR-FRET kinase assay (ROCK1); format: biochemical; settings: 1 μM ATP, 50 nM ULight-CREBtide substrate
T1 construct: Recombinant ROCK1 (amino acids 1-477); by word order, ROCK1 from Carna Biosciences
Method: (§1) Kinase IC50 was determined through an in vitro assay based on LANCE Ultra TR-FRET (Time-Resolved Fluorescence Resonance Energy Transfer) homogeneous technologies method (Perkin Elmer). Recombinant ROCK1 (amino acids 1-477) and ROCK2 (amino acids 5-554) proteins were purchased from Carna Biosciences and SignalChem. Compound activities were measured by Envision and IC50s were calculated. The assays were performed in white LUMITRAC™ 200 96 well half-area microplates from Greiner Bio-One. The kinase reaction buffer consisted of 50 mM HEPES pH 7.5, 1 mM EGTA, 10 mM MgCl2, 2 mM DTT and 0.01% Tween-20. Kinases were incubated with 50 nM (ULight-CREBtide) substrate in the presence of 1 (ROCK1) or 4 (ROCK2) μM ATP. The kinase reaction was carried out for 1 hour before addition of a stopping buffer to a final of 10 mM EDTA and 0.6 nM of LANCE Ultra Europium anti-phospho-CREB (Ser133) antibody (PerkinElmer TRF0200) in LANCE detection buffer. All assay incubations were performed at room temperature, and the microplates were sealed with polyester film during that time. The reaction was incubated for 1 hour, and the signal was read in Envision in TR-FRET mode (excitation at 320 nm and emission at 615/665 nm).
(§2) As used herein, a way to describe potency of inhibitory activity (nM) is a value of inhibitory activity at 50% (IC50).

[2] = molecular target: T2, Recombinant ROCK2 (amino acids 5-554) (Homo sapiens, UniProt O75116); experiment: ROCK inhibition assay, LANCE Ultra TR-FRET kinase assay (ROCK2); format: biochemical; settings: 4 μM ATP, 50 nM ULight-CREBtide substrate
T2 construct: ROCK2 (amino acids 5-554); by word order, ROCK2 from SignalChem
Method: as §1, §2

T2 sequence (O75116 5-554): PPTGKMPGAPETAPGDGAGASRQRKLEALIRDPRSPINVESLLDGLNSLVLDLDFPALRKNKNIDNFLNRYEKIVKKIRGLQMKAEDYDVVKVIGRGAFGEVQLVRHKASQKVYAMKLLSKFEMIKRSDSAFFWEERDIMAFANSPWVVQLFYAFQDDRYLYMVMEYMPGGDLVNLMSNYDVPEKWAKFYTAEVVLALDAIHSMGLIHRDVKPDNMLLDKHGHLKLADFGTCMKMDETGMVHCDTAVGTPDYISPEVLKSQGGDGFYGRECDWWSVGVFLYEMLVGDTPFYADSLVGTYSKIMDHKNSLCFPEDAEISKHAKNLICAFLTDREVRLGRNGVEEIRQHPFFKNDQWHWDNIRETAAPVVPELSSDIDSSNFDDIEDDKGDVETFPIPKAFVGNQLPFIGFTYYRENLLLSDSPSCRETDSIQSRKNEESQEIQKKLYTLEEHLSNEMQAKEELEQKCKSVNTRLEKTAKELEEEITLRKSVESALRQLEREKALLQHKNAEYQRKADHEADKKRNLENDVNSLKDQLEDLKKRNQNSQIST
T1 sequence (Q13464 1-477): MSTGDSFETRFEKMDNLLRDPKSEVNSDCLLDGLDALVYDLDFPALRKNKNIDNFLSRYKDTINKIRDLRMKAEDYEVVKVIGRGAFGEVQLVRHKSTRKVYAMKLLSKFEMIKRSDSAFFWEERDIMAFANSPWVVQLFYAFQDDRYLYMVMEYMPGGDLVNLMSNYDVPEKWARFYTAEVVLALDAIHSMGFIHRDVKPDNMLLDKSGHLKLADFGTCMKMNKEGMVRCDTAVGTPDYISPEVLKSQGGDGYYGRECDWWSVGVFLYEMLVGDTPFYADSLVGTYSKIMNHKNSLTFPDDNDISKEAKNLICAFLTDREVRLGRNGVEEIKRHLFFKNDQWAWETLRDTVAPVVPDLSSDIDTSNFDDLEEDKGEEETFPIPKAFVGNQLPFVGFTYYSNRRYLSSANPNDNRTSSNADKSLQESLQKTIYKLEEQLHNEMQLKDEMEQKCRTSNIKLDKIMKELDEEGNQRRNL

Row | Structure (SMILES) | IC50 [1] [µM] | IC50 [2] [µM]
1 | COc1cccc(CN2CCc3cc(-c4cn[nH]c4)ccc3C2=O)c1 [Compound 1, 2-(3-methoxybenzyl)-6-(1H-pyrazol-4-yl)-3,4-dihydroisoquinolin-1(2H)-one] | > 0.501 | 0.1 to 0.5
2 | COc1cccc(Cn2ccc3cc(-c4cn[nH]c4)ccc3c2=O)c1 [Compound 2, 2-(3-methoxybenzyl)-6-(1H-pyrazol-4-yl)isoquinolin-1(2H)-one] | 0.101 to 0.5 | 0.01 to 0.1
3 | O=c1c2ccc(-c3cn[nH]c3)cc2ccn1Cc1cccc(O)c1 [Compound 3, 2-(3-hydroxybenzyl)-6-(1H-pyrazol-4-yl)isoquinolin-1(2H)-one] | 0.101 to 0.5 | 0.01 to 0.1
4 | COc1cccc(Cn2ccc3cc(-c4c[nH]nc4C)ccc3c2=O)c1 [Compound 4] | 0.011 to 0.1 | < 0.01
5 | Cc1n[nH]cc1-c1ccc2c(=O)n(Cc3cccc(O)c3)ccc2c1 [Compound 5] | 0.101 to 0.5 | 0.01 to 0.1
6 | COc1cccc(Cn2ccc3cc(-c4c[nH]nc4C(F)(F)F)ccc3c2=O)c1 [Compound 6] | 0.011 to 0.1 | < 0.01
7 | O=c1c2ccc(-c3c[nH]nc3C(F)(F)F)cc2ccn1Cc1cccc(O)c1 [Compound 7] | 0.101 to 0.5 | 0.01 to 0.1
8 | CC(c1cccc(O)c1)n1ccc2cc(-c3c[nH]nc3C(F)(F)F)ccc2c1=O (stereo not shown) [Compound 8] | 0.101 to 0.5 | 0.01 to 0.1
9 | COc1cccc(Cn2ccc3cc(-c4conc4C)ccc3c2=O)c1 [Compound 9] | 0.011 to 0.1 | < 0.01
10 | COc1cccc(Cn2ccc3cc(-c4ccnn4C)ccc3c2=O)c1 [Compound 11] | 0.011 to 0.1 | < 0.01
11 | COc1cccc(Cn2ccc3cc(-c4c[nH]nc4C(F)F)ccc3c2=O)c1 [Compound 13] | 0.011 to 0.1 | < 0.01
12 | O=c1c2ccc(-c3c[nH]nc3C(F)F)cc2ccn1Cc1cccc(O)c1 [Compound 14] | 0.011 to 0.1 | < 0.01
13 | CC(c1cccc(O)c1)n1ccc2cc(-c3c[nH]nc3C(F)F)ccc2c1=O (stereo not shown) [Compound 15] | 0.011 to 0.1 | < 0.01
14 | COc1cc(F)cc(Cn2ccc3cc(-c4c[nH]nc4Cl)ccc3c2=O)c1 [Compound 17] | 0.011 to 0.1 | < 0.01
15 | COc1cccc(Cn2ccc3cc(-c4c[nH]nc4Cl)ccc3c2=O)c1 [Compound 18] | 0.011 to 0.1 | < 0.01
16 | COc1cccc(C(C)n2ccc3cc(-c4c[nH]nc4Cl)ccc3c2=O)c1 (stereo not shown) [Compound 19] | < 0.01 | < 0.01

Row | Structure (SMILES) | IC50 [1] [µM] | IC50 [2] [µM]
17 | O=c1c2ccc(-c3c[nH]nc3Cl)cc2ccn1Cc1cccc(O)c1 [Compound 20] | < 0.01 | < 0.01
18 | CC(c1cccc(O)c1)n1ccc2cc(-c3c[nH]nc3Cl)ccc2c1=O (stereo not shown) [Compound 21] | 0.011 to 0.1 | < 0.01
19 | O=c1c2ccc(-c3ccncc3)cc2ccn1Cc1cccc(O)c1 [Compound 23] | > 0.501 | 0.1 to 0.5
20 | COc1cccc(C(C)n2ccc3cc(-c4ccnc(N)c4)ccc3c2=O)c1 (stereo not shown) [Compound 26] | 0.101 to 0.5 | 0.01 to 0.1
21 | O=C(NCCc1ccccn1)c1cccc(Cn2ccc3cc(-c4cn[nH]c4)ccc3c2=O)c1 [Compound 27, 3-((1-oxo-6-(1H-pyrazol-4-yl)isoquinolin-2(1H)-yl)methyl)-N-(2-(pyridin-2-yl)ethyl)benzamide] | 0.011 to 0.1 | < 0.01
22 | CC(C)NC(=O)c1cccc(Cn2ccc3cc(-c4cn[nH]c4)ccc3c2=O)c1 [Compound 28] | 0.101 to 0.5 | 0.01 to 0.1
23 | O=C(Nc1ccccc1)c1cccc(Cn2ccc3cc(-c4cn[nH]c4)ccc3c2=O)c1 [Compound 29] | > 0.501 | 0.1 to 0.5
24 | O=C(NCc1ccccc1)c1cccc(Cn2ccc3cc(-c4cn[nH]c4)ccc3c2=O)c1 [Compound 30] | > 0.501 | 0.1 to 0.5
25 | Cc1n[nH]cc1-c1ccc2c(=O)n(Cc3cccc(C(=O)Nc4ccn(C)n4)c3)ccc2c1 [Compound 32] | 0.101 to 0.5 | < 0.01
26 | Cc1n[nH]cc1-c1ccc2c(=O)n(Cc3cccc(C(=O)NCc4cccc(NS(C)(=O)=O)c4)c3)ccc2c1 [Compound 33] | > 0.501 | 0.1 to 0.5
27 | Cc1n[nH]cc1-c1ccc2c(=O)n(Cc3cccc(C(=O)Nc4cccc(S(N)(=O)=O)c4)c3)ccc2c1 [Compound 34] | > 0.501 | 0.1 to 0.5
28 | Cc1n[nH]cc1-c1ccc2c(=O)n(Cc3cccc(C(=O)Nc4cccc(OC(F)(F)F)c4)c3)ccc2c1 [Compound 35] | > 0.501 | 0.1 to 0.5
29 | Cc1n[nH]cc1-c1ccc2c(=O)n(Cc3cccc(C(=O)Nc4ccc(S(N)(=O)=O)cc4)c3)ccc2c1 [Compound 36] | > 0.501 | 0.1 to 0.5
30 | Cc1n[nH]cc1-c1ccc2c(=O)n(Cc3cccc(C(=O)Nc4ccc(NS(C)(=O)=O)cc4)c3)ccc2c1 [Compound 37] | > 0.501 | 0.1 to 0.5
31 | Cc1n[nH]cc1-c1ccc2c(=O)n(Cc3cccc(C(=O)Nc4ccccc4OC(F)(F)F)c3)ccc2c1 [Compound 38] | > 0.501 | 0.1 to 0.5
32 | Cc1n[nH]cc1-c1ccc2c(=O)n(Cc3cccc(C(=O)Nc4ccc(F)nc4)c3)ccc2c1 [Compound 39] | 0.101 to 0.5 | 0.01 to 0.1

Results, then the compound that gave them:

Row | IC50 [1] [µM] | IC50 [2] [µM] | Structure (SMILES)
33 | 0.101 to 0.5 | 0.01 to 0.1 | Cc1n[nH]cc1-c1ccc2c(=O)n(Cc3cccc(C(=O)NCC(F)(F)F)c3)ccc2c1 [Compound 41]
34 | 0.101 to 0.5 | 0.01 to 0.1 | NS(=O)(=O)c1ccc(NC(=O)c2cccc(Cn3ccc4cc(-c5c[nH]nc5C(F)(F)F)ccc4c3=O)c2)cc1 [Compound 42]
35 | 0.011 to 0.1 | < 0.01 | Cn1ccc(NC(=O)c2cccc(Cn3ccc4cc(-c5cn[nH]c5C(F)(F)F)ccc4c3=O)c2)n1 [Compound 43]
36 | 0.011 to 0.1 | < 0.01 | O=C(NCc1ccc(F)nc1)c1cccc(Cn2ccc3cc(-c4c[nH]nc4C(F)(F)F)ccc3c2=O)c1 [Compound 44]
37 | 0.101 to 0.5 | 0.01 to 0.1 | O=C(NC1CCOCC1)c1cccc(Cn2ccc3cc(-c4c[nH]nc4C(F)(F)F)ccc3c2=O)c1 [Compound 45]
38 | < 0.01 | < 0.01 | O=C(NC1CCNCC1)c1cccc(Cn2ccc3cc(-c4c[nH]nc4C(F)(F)F)ccc3c2=O)c1 [Compound 46]
39 | < 0.01 | < 0.01 | CN1CCC(NC(=O)c2cccc(Cn3ccc4cc(-c5c[nH]nc5C(F)(F)F)ccc4c3=O)c2)CC1 [Compound 47]
40 | 0.101 to 0.5 | < 0.01 | O=C(NC1CCN(C2COC2)CC1)c1cccc(Cn2ccc3cc(-c4c[nH]nc4C(F)(F)F)ccc3c2=O)c1 [Compound 48]
41 | 0.101 to 0.5 | < 0.01 | O=C(NC1CCN(CC(F)F)CC1)c1cccc(Cn2ccc3cc(-c4c[nH]nc4C(F)(F)F)ccc3c2=O)c1 [Compound 49]
42 | 0.101 to 0.5 | 0.01 to 0.1 | O=C(NC1CC1)c1cccc(Cn2ccc3cc(-c4c[nH]nc4C(F)(F)F)ccc3c2=O)c1 [Compound 50]
43 | < 0.01 | < 0.01 | CN1CCC(CNC(=O)c2cccc(Cn3ccc4cc(-c5c[nH]nc5C(F)(F)F)ccc4c3=O)c2)CC1 [Compound 51]
44 | 0.011 to 0.1 | < 0.01 | O=C(NCC1CCOCC1)c1cccc(Cn2ccc3cc(-c4c[nH]nc4C(F)(F)F)ccc3c2=O)c1 [Compound 52]
45 | 0.011 to 0.1 | < 0.01 | O=C(NCC1COC1)c1cccc(Cn2ccc3cc(-c4c[nH]nc4C(F)(F)F)ccc3c2=O)c1 [Compound 53]
46 | 0.011 to 0.1 | < 0.01 | O=C(NCCc1cccc(F)n1)c1cccc(Cn2ccc3cc(-c4c[nH]nc4C(F)(F)F)ccc3c2=O)c1 [Compound 54]
47 | 0.011 to 0.1 | < 0.01 | O=C(NCC1CCOCC1)c1cccc(Cn2ccc3cc(-c4c[nH]nc4C(F)F)ccc3c2=O)c1 [Compound 55]
48 | < 0.01 | < 0.01 | CN1CCC(CNC(=O)c2cccc(Cn3ccc4cc(-c5c[nH]nc5C(F)F)ccc4c3=O)c2)CC1 [Compound 56]
49 | < 0.01 | < 0.01 | O=C(NCC1CCNCC1)c1cccc(Cn2ccc3cc(-c4c[nH]nc4C(F)F)ccc3c2=O)c1 [Compound 57]
50 | 0.011 to 0.1 | < 0.01 | O=C(NCC1COC1)c1cccc(Cn2ccc3cc(-c4c[nH]nc4C(F)F)ccc3c2=O)c1 [Compound 58]
51 | 0.011 to 0.1 | < 0.01 | O=C(NCC1COC1)c1cc(F)cc(Cn2ccc3cc(-c4c[nH]nc4C(F)F)ccc3c2=O)c1 [Compound 59]
52 | 0.011 to 0.1 | < 0.01 | O=C(NCC1CCOCC1)c1cc(F)cc(Cn2ccc3cc(-c4c[nH]nc4C(F)F)ccc3c2=O)c1 [Compound 60]
53 | < 0.01 | < 0.01 | O=C(NCC1CCNCC1)c1cc(F)cc(Cn2ccc3cc(-c4c[nH]nc4C(F)F)ccc3c2=O)c1 [Compound 61]
54 | < 0.01 | < 0.01 | CN1CCC(CNC(=O)c2cc(F)cc(Cn3ccc4cc(-c5c[nH]nc5C(F)F)ccc4c3=O)c2)CC1 [Compound 62]
55 | 0.101 to 0.5 | – | C[C@H](c1cccc(C(=O)Nc2ccon2)c1)n1cnc2cc(-c3cn[nH]c3C(F)(F)F)ccc2c1=O [Compound 448]
